According to US20200390754A1, “METHODS OF ADMINISTERING TOLPERISONE” (Neurana Pharmaceuticals, Inc., priority 2017, published 2020):

Columns and labels:
[1] = system: male and female healthy volunteers; test: Karolinska Sleepiness Scale (KSS) test; assay type: in vivo, human; conditions: for Karolinska Sleepiness Scale (KSS): Tolperisone 450 mg, Cyclobenzaprine 30 mg, TID
Description: (§1) Subjects were dosed on the morning of Day 1.
The Karolinska Sleepiness Scale (KSS) was used to assess subjective level of sleepiness. This is a subject self-report measure of situational sleepiness and provides an assessment of alertness/sleepiness at a particular point in time. […] Subjects indicated their level of alertness versus sleepiness according to the following scale:
The KSS assessment was performed immediately before and after the simulated driving test Subjects self-reported their KSS assessments and the scores were recorded in the case report form.

[2] = system: male and female healthy volunteers; test: Digit Symbol Substitution Test (CogScreen Symbol Digit Coding); assay type: in vivo, human; conditions: Tolperisone 450 mg, Cyclobenzaprine 30 mg, TID
Description: as §1
This test is used to measure attention, visual scanning, working memory, and speed of information processing. SDC is a computer analogue of the conventional symbol-substitution task found in the WAIS-R Digit Symbol subtest and the Symbol Digit Modalities Test. Details of the use of the SDC are provided in the CogScreen® Examiner Manual, CogScreen LLC, 2016. CogScreen SDC endpoints include: • Number of correct responses; • Response Accuracy; and • Standard deviation of reaction time.

[3] = system: male and female healthy volunteers; test: Safety: treatment emergent adverse events; assay type: in vivo, human; conditions: for Treatment Emergent Adverse Events: Cardiac / Treatment Emergent Adverse Events: Gastrointestinal Disorders / Treatment Emergent Adverse Events: General: Sluggishness / Treatment Emergent Adverse Events: Nervous System Disorders, Attention / Treatment Emergent Adverse Events: Nervous System Disorders, Dizziness / Treatment Emergent Adverse Events: Nervous System Disorders, Headache / Treatment Emergent Adverse Events: Nervous System Disorders, Lethargy / Treatment Emergent Adverse Events: Nervous System Disorders, Somnolence / Treatment Emergent Adverse Events: Psychiatric (Insomnia) / Treatment Emergent Adverse Events: Respiratory / Treatment Emergent Adverse Events: Skin: Tolperisone 450 mg, Cyclobenzaprine 30 mg; for number of Treatment Emergent Adverse Events (TEAEs) reported: n per treatment, 3 days of each treatment
Description: as §1
Safety analysis was based on the safety population. Safety measures were summarized using descriptive statistics and listed for each subject. MedDRA thesaurus was used to map adverse events verbatim to preferred terms and body systems. WHOdrug thesaurus (Sep. 1, 2016) was used to map prior medication and concomitant medication verbatim to preferred terms and ATC Class.
The Principal Investigator was responsible for the monitoring of subjects' safety and reporting of all adverse events (AEs) and serious adverse events (SAEs). The study personnel reviewed subject-volunteered information related to subjective complaints, and reviewed all laboratory findings and queried the subject specifically for visits requiring hospitalization, procedures, laboratory follow-up, or unscheduled visits to see their physician. Each trial subject was questioned about AEs during treatment with study drug. All AEs were documented in the subject's source documents as well as on the appropriate case report form (CRF). The Investigator assessed and recorded any AE in detail on the AE CRF pages including a description of the event, the date of onset, severity, time course, duration and outcome, relationship of the AE to study drug, and an alternate etiology for events not considered “probably” related to study drug and any actions taken.

[4] = system: male and female healthy volunteers; test: Country Vigilance-Divided Attention (CVDA) driving scenario on the CRCDS-MiniSim driving simulator; conditions: for Lane Exceedance (extent of driving outside of lanes) / Total Collisions: Tolperisone 450 mg, Cyclobenzaprine 30 mg, TID; for SDLP in driving simulation compared to placebo (words, FIG. 1): primary endpoint; for Reaction time on the divided attention test: Day 1, compared to placebo (placebo or cyclobenzaprine)
Description: Methodology: This was a randomized, placebo-controlled, multiple-dose 3-way cross-over study of the safety and cognitive effects of multiple doses of 150 mg tolperisone film-coated tablets (prepared according to methods described and referred to herein) administered three times daily (TID) in 31 male and female healthy volunteers. […] Subjects received 3 days of each treatment over three treatment periods. Subject participation was approximately 3 weeks as outpatients with 3 days each week as overnight clinic participants. Subjects were screened within 28 days prior to Treatment Period 1 (Visit 2) for eligibility for participation in the study. Subjects who met all inclusion/exclusion criteria were admitted to the clinic on Day 1 to be evaluated for continued eligibility. Subjects performed a practice trial with the driving simulator and the cognitive function test. Subjects were dosed on the morning of Day 1. Approximately one hour after the […] dose on Day 1, subjects were administered the cognitive test, followed by the driving simulator examination. On the morning of Day 2, prior to dosing, subjects were re-administered the cognitive test and driving examination to assess residual next day effects. Subjects repeated cognitive testing and the driving examination on the morning of Day 3, after administration of the AM study medication, to evaluate the cumulative effects of 3 days of dosing. Subjects were discharged on Day 3 with instructions to return to the clinic on […] to repeat the above procedure with the second and third treatments. A follow-up phone call was conducted 1 week (±3 days) following discharge from the clinic on Day 17 to assess for continued safety. The total duration of study participation was approximately 4 weeks (range 4-8 weeks), including Screening and Follow-up.
The pharmacodynamic measures included simulated driving performance as measured by SDLP using the Cognitive Research Corporation Driving Simulator-MiniSim (CRCDS-MiniSim), the Karolinska Sleepiness Scale, the CogScreen Symbol Digit Coding (SDC) test, a self-perceived safety to drive question, the Visual Analog Scale (VAS) to assess subject's motivation and self-appraisal of their driving performance, and an assessment of the relationship between single-dose plasma drug levels and driving performance. Blood samples for the determination of plasma tolperisone concentrations were drawn prior to each AM dosing on Days 1-3, 8-10, 15-17 and post-driving test (15-30 minutes after the drive) on Days 1, 8, and 15. Blood samples collected post-driving test on Days 3, 10, and 17 were drawn between 1.5 and 2 hours after the start of the drive (approximately 10:30 AM to 11:00 AM). Safety was assessed by the monitoring and recording of adverse events, vital sign measurements, clinical laboratory abnormalities, electrocardiograms (ECGs), pregnancy tests, and physical examinations.
The primary endpoint, SDLP, was analyzed using a mixed-model, repeated measures with fixed effects for sequence, period, and treatment, with repeated observations for subjects. An unstructured covariance structure and Kenward-Roger degrees of freedom was used. […] In addition, pair-wise within subject differences in SDLP greater than 4.4 cm in absolute value (equal to the previously found difference between placebo and 0.05% Blood Alcohol Content (BAC) for the CRCDS) were compared using McNemar's test. Pair-wise within subject differences in SDLP were also tested for symmetry about […] using the maximally selected McNemar test. P-values for significance testing of period and sequence effects are also provided. Pair-wise comparisons (hypothesis tests) of differences in least squares means, and 95% confidence intervals on differences will be provided for:
A 62.1 mile (100 km), monotonous, two-lane highway driving task that includes a secondary visual vigilance task (DA).

Karolinska Sleepiness Scale (KSS) ([1]; Day 1 (at Tmax))	Karolinska Sleepiness Scale (KSS) ([1]; Next Day Residual)	Karolinska Sleepiness Scale (KSS) ([1]; Steady State)	Symbol Digit Coding (SDC) Cognitive Research Version ([2]; Day 1 (at Tmax))	Symbol Digit Coding (SDC) Cognitive Research Version ([2]; Next Day Residual)	Symbol Digit Coding (SDC) Cognitive Research Version ([2]; Steady State)	Average speed compared to placebo ([4]; in vivo)	Divided attention: number of Commission Errors compared to placebo ([4]; in vivo)	SMILES	Treatment Emergent Adverse Events: Cardiac [3]	Treatment Emergent Adverse Events: Gastrointestinal Disorders [3]	Treatment Emergent Adverse Events: General: Sluggishness [3]	Treatment Emergent Adverse Events: Nervous System Disorders, Attention [3]	Treatment Emergent Adverse Events: Nervous System Disorders, Dizziness [3]	Treatment Emergent Adverse Events: Nervous System Disorders, Headache [3]	Treatment Emergent Adverse Events: Nervous System Disorders, Lethargy [3]	Treatment Emergent Adverse Events: Nervous System Disorders, Somnolence [3]	Treatment Emergent Adverse Events: Psychiatric (Insomnia) [3]	Treatment Emergent Adverse Events: Respiratory [3]	Treatment Emergent Adverse Events: Skin [3]	number of Treatment Emergent Adverse Events (TEAEs) reported [3]	also measured
5.5	4.1	3.8	66.4	66.7	67.4	did not differ significantly	non-significant	CN(C)CCC=C1c2ccccc2C=Cc2ccccc21 [Cyclobenzaprine, cyclobenzaprine]	1	4	1	0	3	0	1	10	1	0	0	21	KSS subjective sleepiness ([1]; Day 1): significantly more subjective sleepiness; KSS subjective sleepiness ([1]; Day 2 or Day 3): did not report feeling more sleepy; severe AE ([3]; in vivo): one severe AE of dizziness; Lane Exceedance Maximum and Duration of Exceedance compared to placebo ([4]; Cyc: Days 1 and 2, Tol: any time-point): significantly worse; Lane Exceedance (extent of driving outside of lanes) ([4]; Day 1 (at Tmax)): 3.6; Total Collisions ([4]; Day 1 (at Tmax)): 1.6; Speedings Ratio compared to placebo ([4]; Day 2 and 3): no significant effect; Lane Exceedance (extent of driving outside of lanes) ([4]; Next Day Residual): 3.2; Total Collisions ([4]; Next Day Residual): 0.4; Lane Exceedance (extent of driving outside of lanes) ([4]; Steady State): 2.9; Total Collisions ([4]; Steady State): 0.1; Divided attention: number of Correct Responses compared to placebo ([4]; in vivo): no significant effect; Divided attention: number of Omission Errors ([4]; in vivo): no increase; Total Collisions compared to placebo ([4]; in vivo): no significant increase; SDLP in driving simulation compared to placebo (words, FIG. 1) [4]: significantly impaired effect
3.5	4.0	3.1	66.6	69.3	70.1	did not differ significantly	non-significant	Cc1ccc(C(=O)C(C)CN2CCCCC2)cc1 (stereo not drawn) [Tolperisone, tolperisone]	0	1	0	1	1	1	0	5	0	1	0	15	KSS self-reported sleepiness ([1]; any time-point): no significant increase; discontinuation due to AE ([3]; following the first day of dosing): one subject due to a moderate AE of a Crohn's Disease flare up; Reaction time on the divided attention test [4]: statistically significant improvement; Reaction time on the divided attention test ([4]; listed as Tol): significantly faster; Divided attention: number of Correct Responses compared to placebo ([4]; in vivo): no significant effect; Divided attention: number of Omission Errors ([4]; in vivo): no increase; Excessive Ay compared to placebo ([4]; in vivo): no significant increase; Lane Exceedance Maximum and Duration of Exceedance compared to placebo ([4]; in vivo): not seen; Speedings Count compared to placebo ([4]; in vivo): not significantly impacted; Speedings Ratio compared to placebo ([4]; in vivo): no significant effect; Total Collisions compared to placebo ([4]; in vivo): no significant increase; hangover effect the morning following nighttime dosing ([4]; in vivo): does not produce a hangover effect; majority of secondary driving endpoint measures compared to placebo ([4]; in vivo): no statistically significant difference; SDLP in driving simulation compared to placebo (words, FIG. 1) [4]: equivalent results
